Measurements published in PMC3526353 (The Journal of Experimental Medicine, 2012).

Target: receptor for advanced glycation end products (RAGE) (Homo sapiens, UniProt Q15109)
Test: SPR
Format: binding

receptor for advanced glycation end products (RAGE), sequence (Q15109 23-342 limits assumed): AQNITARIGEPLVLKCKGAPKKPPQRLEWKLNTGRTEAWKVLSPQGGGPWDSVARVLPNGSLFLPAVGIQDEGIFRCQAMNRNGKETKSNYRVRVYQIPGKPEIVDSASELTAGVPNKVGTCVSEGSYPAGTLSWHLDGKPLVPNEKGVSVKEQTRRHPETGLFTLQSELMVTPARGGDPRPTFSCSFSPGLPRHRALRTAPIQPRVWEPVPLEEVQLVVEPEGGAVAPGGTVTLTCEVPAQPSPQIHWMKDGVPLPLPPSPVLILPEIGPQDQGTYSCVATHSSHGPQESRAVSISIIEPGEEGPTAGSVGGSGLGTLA

Compound: CCCCCCCC/C=C\CCCCCCCC(=O)OC[C@@H](O)COP(=O)(O)O [LPA, 1-oleoyl-2-hydroxy-sn-glycero-3-phosphate]
- Kd: 84.9 nM
